# Results from article PMC11111408, “Concurrent inhibition of oncogenic and wild-type RAS-GTP for cancer therapy” (Nature, 2024).
# Several values for one entry are separate records, joined by “and”; a condition that tells them apart may be missing. Identical values can stand only once.
# Legend:
# Experiment in all cases: Cellular BRET between CYPA and small GTPases (RIT1, MRAS, RRAS, RRAS2, Rheb)
# Assay type in all cases: cell-based
# [1] = biological target: T1, MRAS and other RAS family small GTPase proteins (Homo sapiens, UniProt O14807, Q71R); settings: MRAS Q71R, single replicates
# T1 construct: expressed in transfected cells; host or cells: U2OS PPIA-KO
# T1 sequence (O14807 1-208 Q71R): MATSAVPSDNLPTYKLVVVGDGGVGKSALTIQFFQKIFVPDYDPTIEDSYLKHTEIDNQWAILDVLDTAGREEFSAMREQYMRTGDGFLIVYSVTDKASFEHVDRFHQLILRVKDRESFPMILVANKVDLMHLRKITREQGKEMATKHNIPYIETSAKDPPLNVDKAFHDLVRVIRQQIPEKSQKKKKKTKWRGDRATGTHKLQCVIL
# [2] = biological target: T2, MRAS and other RAS family small GTPase proteins (Homo sapiens, UniProt P10301, G38V); settings: RRAS G38V, single replicates
# T2 construct: expressed in transfected cells; host or cells: U2OS PPIA-KO
# T2 sequence (P10301 1-218 G38V): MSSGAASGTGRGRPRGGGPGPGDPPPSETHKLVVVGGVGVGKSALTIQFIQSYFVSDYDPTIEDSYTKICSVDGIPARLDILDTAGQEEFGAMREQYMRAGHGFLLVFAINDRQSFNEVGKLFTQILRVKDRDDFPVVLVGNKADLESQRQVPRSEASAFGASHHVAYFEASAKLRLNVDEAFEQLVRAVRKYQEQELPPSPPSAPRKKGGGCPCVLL
# [3] = biological target: T3, MRAS and other RAS family small GTPase proteins (Homo sapiens, UniProt P62070, G23V); settings: RRAS2 G23V, single replicates
# T3 construct: expressed in transfected cells; host or cells: U2OS PPIA-KO
# T3 sequence (P62070 1-204 G23V): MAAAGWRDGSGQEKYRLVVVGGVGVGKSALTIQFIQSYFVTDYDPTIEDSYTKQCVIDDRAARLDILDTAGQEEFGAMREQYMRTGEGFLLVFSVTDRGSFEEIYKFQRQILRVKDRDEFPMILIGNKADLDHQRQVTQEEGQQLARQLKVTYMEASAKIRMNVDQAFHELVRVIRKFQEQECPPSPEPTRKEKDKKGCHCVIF
# [4] = biological target: T4, MRAS and other RAS family small GTPase proteins (Homo sapiens, UniProt Q15382); settings: RHEB, single replicates
# T4 construct: expressed in transfected cells; host or cells: U2OS PPIA-KO
# T4 sequence (Q15382 whole entry): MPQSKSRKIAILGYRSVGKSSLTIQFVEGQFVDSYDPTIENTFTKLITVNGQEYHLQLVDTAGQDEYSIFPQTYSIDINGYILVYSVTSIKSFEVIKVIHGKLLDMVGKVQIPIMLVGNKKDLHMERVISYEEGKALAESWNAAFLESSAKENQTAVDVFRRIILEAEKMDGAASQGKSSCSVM
structure (smiles),measurement,setting,value
CCn1c(-c2cc(N3CCN(C4CC4)CC3)cnc2[C@H](C)OC)c2c3cc(ccc31)-c1csc(n1)C[C@H](NC(=O)[C@H]1[C@@H]3COC[C@@H]31)C(=O)N1CCC[C@H](N1)C(=O)OCC(C)(C)C2 [RMC-7977],Cellular milliBRET signal between CYPA and small GTPase protein,[1]; RMC-7977 1.524 nM,0.1742 milliBRET and -0.02549 milliBRET and -0.02476 milliBRET and 0.1125 milliBRET and -0.009573 milliBRET and 0.6001 milliBRET
same,Cellular milliBRET signal between CYPA and small GTPase protein,[1]; RMC-7977 4.572 nM,0.2187 milliBRET and 0.4442 milliBRET and 0.7681 milliBRET and 0.6759 milliBRET and 0.0576 milliBRET and 0.4387 milliBRET
same,Cellular milliBRET signal between CYPA and small GTPase protein,[1]; RMC-7977 13.717 nM,1.192 milliBRET and 1.33 milliBRET and 1.81 milliBRET and 1.499 milliBRET and 1.997 milliBRET and 1.461 milliBRET
same,Cellular milliBRET signal between CYPA and small GTPase protein,[1]; RMC-7977 41.152 nM,3.258 milliBRET and 4.102 milliBRET and 3.883 milliBRET and 4.836 milliBRET and 4.487 milliBRET and 5.493 milliBRET
same,Cellular milliBRET signal between CYPA and small GTPase protein,[1]; RMC-7977 123.457 nM,7.175 milliBRET and 7.5859 milliBRET and 7.924 milliBRET and 8.745 milliBRET and 8.3065 milliBRET and 8.689 milliBRET
same,Cellular milliBRET signal between CYPA and small GTPase protein,[1]; RMC-7977 370.370 nM,10.161 milliBRET and 10.397 milliBRET and 10.5343 milliBRET and 10.3086 milliBRET and 10.5443 milliBRET and 10.7709 milliBRET
same,Cellular milliBRET signal between CYPA and small GTPase protein,[1]; RMC-7977 1111.111 nM,10.7121 milliBRET and 10.5516 milliBRET and 12.3365 milliBRET and 10.0544 milliBRET and 11.7366 milliBRET and 10.787 milliBRET
same,Cellular milliBRET signal between CYPA and small GTPase protein,[2]; RMC-7977 1.524 nM,0.03915 milliBRET and 0.5182 milliBRET and 0.5529 milliBRET and 0.4086 milliBRET and -0.3288 milliBRET and -0.1046 milliBRET
same,Cellular milliBRET signal between CYPA and small GTPase protein,[2]; RMC-7977 4.572 nM,0.5753 milliBRET and 0.4746 milliBRET and 0.4726 milliBRET and 0.8392 milliBRET and 0.3184 milliBRET and -0.4343 milliBRET
same,Cellular milliBRET signal between CYPA and small GTPase protein,[2]; RMC-7977 13.717 nM,1.433 milliBRET and 1.375 milliBRET and 1.967 milliBRET and 1.168 milliBRET and -0.05818 milliBRET and -0.1444 milliBRET
same,Cellular milliBRET signal between CYPA and small GTPase protein,[2]; RMC-7977 41.152 nM,2.179 milliBRET and 2.7799 milliBRET and 3.446 milliBRET and 3.438 milliBRET and 1.092 milliBRET and 1.757 milliBRET
same,Cellular milliBRET signal between CYPA and small GTPase protein,[2]; RMC-7977 123.457 nM,6.2456 milliBRET and 5.867 milliBRET and 7.851 milliBRET and 6.806 milliBRET and 4.695 milliBRET and 3.825 milliBRET
same,Cellular milliBRET signal between CYPA and small GTPase protein,[2]; RMC-7977 370.370 nM,10.4854 milliBRET and 10.0017 milliBRET and 10.9416 milliBRET and 10.5658 milliBRET and 8.5015 milliBRET and 8.57 milliBRET
same,Cellular milliBRET signal between CYPA and small GTPase protein,[2]; RMC-7977 1111.111 nM,11.032 milliBRET and 12.1599 milliBRET and 11.6879 milliBRET and 11.9893 milliBRET and 10.1243 milliBRET and 10.2861 milliBRET
same,Cellular milliBRET signal between CYPA and small GTPase protein,[3]; RMC-7977 1.524 nM,-0.2719 milliBRET and -0.4231 milliBRET and 0.2605 milliBRET and -0.1984 milliBRET and 0.524 milliBRET and 0.04711 milliBRET
same,Cellular milliBRET signal between CYPA and small GTPase protein,[3]; RMC-7977 4.572 nM,-0.5269 milliBRET and -0.1093 milliBRET and -0.06611 milliBRET and -0.1023 milliBRET and 0.1899 milliBRET and 0.4007 milliBRET
same,Cellular milliBRET signal between CYPA and small GTPase protein,[3]; RMC-7977 13.717 nM,0.6404 milliBRET and 0.07312 milliBRET and 0.4941 milliBRET and 0.7558 milliBRET and 0.6549 milliBRET and 1.032 milliBRET
same,Cellular milliBRET signal between CYPA and small GTPase protein,[3]; RMC-7977 41.152 nM,0.4251 milliBRET and 1.3441 milliBRET and 1.494 milliBRET and 1.804 milliBRET and 1.776 milliBRET and 2.155 milliBRET
same,Cellular milliBRET signal between CYPA and small GTPase protein,[3]; RMC-7977 123.457 nM,1.79 milliBRET and 2.3918 milliBRET and 3.205 milliBRET and 3.2803 milliBRET and 3.617 milliBRET and 3.886 milliBRET
same,Cellular milliBRET signal between CYPA and small GTPase protein,[3]; RMC-7977 370.370 nM,4.62 milliBRET and 5.516 milliBRET and 5.967 milliBRET and 6.807 milliBRET and 6.877 milliBRET and 7.887 milliBRET
same,Cellular milliBRET signal between CYPA and small GTPase protein,[3]; RMC-7977 1111.111 nM,5.956 milliBRET and 7.6238 milliBRET and 6.926 milliBRET and 8.351 milliBRET and 7.549 milliBRET and 9.519 milliBRET
same,Cellular milliBRET signal between CYPA and small GTPase protein,[4]; RMC-7977 1.524 nM,-0.45 milliBRET and -0.2239 milliBRET and 0.1289 milliBRET and 0.6887 milliBRET and -0.5364 milliBRET and -0.5485 milliBRET
same,Cellular milliBRET signal between CYPA and small GTPase protein,[4]; RMC-7977 4.572 nM,0.6966 milliBRET and 0.368 milliBRET and 0.4716 milliBRET and -0.2095 milliBRET and 0.8367 milliBRET and -0.3539 milliBRET
same,Cellular milliBRET signal between CYPA and small GTPase protein,[4]; RMC-7977 13.717 nM,1.377 milliBRET and 0.5452 milliBRET and 0.5599 milliBRET and 0.1038 milliBRET and 0.7915 milliBRET and 0.2385 milliBRET
same,Cellular milliBRET signal between CYPA and small GTPase protein,[4]; RMC-7977 41.152 nM,0.3762 milliBRET and 0.1445 milliBRET and -0.08351 milliBRET and -0.3538 milliBRET and 0.07098 milliBRET and 0.09785 milliBRET
